Values quoted from earlier work, collected in patent US8697106B2, “Coating composition” (SurModics, Inc., priority 2006, dated 2014).

Legend:
[1] = system-wide (systemic) concentration
[2] = tested on: bacteria; conditions: effective systemic concentration

NC[C@H]1O[C@H](O[C@H]2[C@H](O)[C@@H](O[C@H]3O[C@H](CO)[C@@H](O)[C@H](N)[C@H]3O)[C@H](N)C[C@@H]2N)[C@H](N)C[C@@H]1O [tobramycin]
system-wide toxic concentration [1]: about 400 mcg/ml | effective concentration to actively control bacteria [2]: ≤ 4 µg/mL
